Assays:
CLIC4 [1] = molecular target: T1, CLIC4 (Homo sapiens, UniProt Q9Y696); experiment: inhibition of HEDS reductase activity, GR-coupled NADPH consumption at […] nm; type: biochemical; conditions: 10 µM inhibitor, 10 µM CLIC, 1 h preincubation at 4 °C; 1 mM HEDS, 1 mM GSH, 250 µM NADPH, 0.5 µg/mL GR, pH 7, 37 °C
T1 construct: recombinant, E. coli, pGEX-4T-1 N-terminal GST tag cut off with thrombin, SEC purified

CLIC3 [2] = molecular target: T2, CLIC3 (Homo sapiens, UniProt O95833); experiment: as above; type: biochemical; conditions: 10 µM inhibitor, 10 µM CLIC, 1 h preincubation at 4 °C; 1 mM HEDS, 1 mM GSH, 250 µM NADPH, 0.5 µg/mL GR, pH 7, 37 °C
T2 construct: recombinant, E. coli BL21(DE3), pET-28a His-tag cut off with thrombin, Ni-NTA and SEC purified
T2 sequence (O95833 whole entry): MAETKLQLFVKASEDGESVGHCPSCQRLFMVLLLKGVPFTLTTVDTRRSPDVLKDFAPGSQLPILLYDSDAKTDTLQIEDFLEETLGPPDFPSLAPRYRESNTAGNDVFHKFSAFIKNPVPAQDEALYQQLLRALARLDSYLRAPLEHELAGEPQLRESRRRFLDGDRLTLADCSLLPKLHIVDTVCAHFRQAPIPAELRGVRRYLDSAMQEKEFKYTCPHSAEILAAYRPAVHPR

CLIC1 [3] = molecular target: T3, CLIC1 (Homo sapiens, UniProt O00299); experiment: as above; type: biochemical; parameters: recombinant, E. coli BL21(DE3), pET-28a His-tag cut off with thrombin, Ni-NTA and SEC purified; conditions: 10 µM inhibitor, 10 µM CLIC, 1 h preincubation at 4 °C; 1 mM HEDS, 1 mM GSH, 250 µM NADPH, 0.5 µg/mL GR, pH 7, 37 °C
CLIC1 [4] = molecular target: T3, CLIC1; conditions: 1 mM GSH, 250 µM NADPH, 0.5 µg/mL yeast GR, 10 µM CLIC, 5 mM potassium phosphate pH 7, 1 mM EDTA, 37 °C
CLIC3 [5] = molecular target: T2, CLIC3; experiment: HEDS assay coupled to glutathione reductase, NADPH consumption at […] nm, Lineweaver-Burk; type: biochemical; conditions: 1 mM GSH, 250 µM NADPH, 0.5 µg/mL yeast GR, 10 µM CLIC, 5 mM potassium phosphate pH 7, 1 mM EDTA, 37 °C
CLIC4 [6] = molecular target: T1, CLIC4; experiment: as above; type: biochemical; conditions: 1 mM GSH, 250 µM NADPH, 0.5 µg/mL yeast GR, 10 µM CLIC, 5 mM potassium phosphate pH 7, 1 mM EDTA, 37 °C

T1 sequence (Q9Y696 whole entry): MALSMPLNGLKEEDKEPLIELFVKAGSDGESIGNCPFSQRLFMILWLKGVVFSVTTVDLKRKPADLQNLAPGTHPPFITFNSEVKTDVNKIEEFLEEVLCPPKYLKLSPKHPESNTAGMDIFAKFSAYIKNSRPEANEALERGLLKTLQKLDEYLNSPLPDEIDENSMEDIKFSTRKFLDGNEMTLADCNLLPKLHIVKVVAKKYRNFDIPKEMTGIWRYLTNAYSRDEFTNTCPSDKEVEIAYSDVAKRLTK

| SMILES | residual activity (%) at 10 μM (CLIC4 [1]) | residual activity (%) at 10 μM (CLIC3 [2]) | residual activity (%) at 10 μM (CLIC1 [3]) | Km (CLIC1 [4]) | Km (CLIC3 [5]) | Km (CLIC4 [6]) |
| --- | --- | --- | --- | --- | --- | --- |
| CO[C@H]1C[C@@H]2CC[C@@H](C)[C@@](O)(O2)C(=O)C(=O)N2CCCC[C@H]2C(=O)O[C@H]([C@H](C)C[C@@H]2CC[C@@H](O)[C@H](OC)C2)CC(=O)[C@H](C)/C=C(\C)[C@@H](O)[C@@H](OC)C(=O)[C@H](C)C[C@H](C)/C=C/C=C/C=C/1C [rapamycin] | Both rapamycin and amphotericin B caused inhibition of the enzymatic activity of all three proteins | Both rapamycin and amphotericin B caused inhibition of the enzymatic activity of all three proteins | with CLIC1′s activity virtually abolished by all three drugs |  |  |  |
| C[C@@H]1[C@H](O)[C@@H](C)/C=C/C=C/C=C/C=C/C=C/C=C/C=C/[C@H](O[C@@H]2O[C@H](C)[C@@H](O)[C@H](N)[C@@H]2O)C[C@@H]2O[C@](O)(C[C@@H](O)C[C@@H](O)[C@H](O)CC[C@@H](O)C[C@@H](O)CC(=O)O[C@H]1C)C[C@H](O)[C@H]2C(=O)O [amphotericin B] | Both rapamycin and amphotericin B caused inhibition of the enzymatic activity of all three proteins | Both rapamycin and amphotericin B caused inhibition of the enzymatic activity of all three proteins | with CLIC1′s activity virtually abolished by all three drugs |  |  |  |
| OCCSSCCO [HEDS] |  |  |  | 274 µM | 266 µM | 345 µM |
